Results published in patent US20210386720A1, “METHODS OF TREATING CNS TUMORS WITH TESETAXEL” (Odonate Therapeutics, Inc., priority 2018, published 2021).

Tests used:
[1] = Human plasma and CNS tissue binding by rapid equilibrium dialysis; type: in vitro ADME
[2] = In vivo tissue distribution of 14C-tesetaxel in dogs; set-up: species or system dog; conditions: for t1/2 / Cerebellum / Cerebrum / Plasma: 0.6 mg/kg; for Cerebellum / Cerebrum / Plasma: 14 days post-dose, radioactivity
Experimental: (§1) The in vivo tissue distribution of tesetaxel was previously investigated in mice treated with ^14C-tesetaxel at 4 mg/kg and sacrificed between 1-168 hours.^1 Two additional studies have been conducted in dogs and monkeys.
(§2) Dogs and monkeys were dosed at 0.6 mg/kg and 1 mg/kg of ^14C-tesetaxel, respectively, and tissue distribution was assessed at 336 hours post-dose (14 days). These doses equate to ˜44% of the 27 mg/m^2 dose in an ongoing Phase 3 clinical study. In vivo radioactivity concentrations in the cerebrum and cerebellum were compared to plasma concentrations and mean tumor GI50 (concentration resulting in 50% tumor growth inhibition) determined by MTT assay in 23 tumor cell lines.

[3] = In vivo tissue distribution of 14C-tesetaxel in monkeys; set-up: species or system monkey; conditions: for t1/2 / Cerebellum / Cerebrum / Plasma: 1 mg/kg; for Cerebellum / Cerebrum / Plasma: 14 days post-dose, radioactivity
Experimental: as §1, §2

taxane-resistant tumors = assay: Nonclinical studies of activity against taxane-resistant tumors
[4] = Terminal plasma half-life in humans
[5] = dog, single oral dose of 0.6 mg/kg, N=3
[6] = monkey, single oral dose of 1 mg/kg, N=3

SMILES: CC(=O)O[C@@]12CO[C@@H]1CC[C@@]1(C)[C@@H]3O[C@H](CN(C)C)O[C@@H]3C3=C(C)[C@@H](OC(=O)[C@H](O)[C@@H](NC(=O)OC(C)(C)C)c4ncccc4F)C[C@@](O)([C@@H](OC(=O)c4ccccc4)[C@@H]12)C3(C)C [Tesetaxel]
- CNS tissue binding ([1]; CNS tissue): 98.9%
- Human plasma binding ([1]; plasma): 98.2%
- t1/2 ([2]; dog, IV): 72 h
- Cerebellum ([2]; dog, IV): 7.8 ± 0.6 ng eq/g
- Cerebrum ([2]; dog, IV): 16.8 ± 2.9 ng eq/g
- Plasma ([2]; dog, IV): 0.5 ± 0.0 ng eq/mL
- t1/2 ([2]; dog, PO): 96 h
- Cerebellum ([2]; dog, PO): 6.1 ± 1.9 ng eq/g
- Cerebrum ([2]; dog, PO): 10.9 ± 4.0 ng eq/g
- Plasma ([2]; dog, PO): 0.9 ± 0.1 ng eq/mL
- Cerebrum/Plasma ([2]; dog, single oral dose of 0.6 mg/kg, 14 days after dosing): 12x
- 14C-Tesetaxel Radioactivity Concentration 14 Days after Dosing, Cerebrum (Mean ± SD) [2, 5]: 10.9 ± 4.0 ng eq./g or mL
- 14C-Tesetaxel Radioactivity Concentration 14 Days after Dosing, Plasma (Mean ± SD) [2, 5]: 0.9 ± 0.1 ng eq./g or mL
- CNS penetration ([2]; dogs, oral (PO) or intravenous (IV) administration): CNS penetration was observed
- t1/2 ([3]; monkey, IV): 72 h
- Cerebellum ([3]; monkey, IV): 18 ± 1.0 ng eq/g
- Cerebrum ([3]; monkey, IV): 21 ± 2.0 ng eq/g
- Plasma ([3]; monkey, IV): 1.0 ± 0.0 ng eq/mL
- t1/2 ([3]; monkey, PO): 52.8 h
- Cerebellum ([3]; monkey, PO): 4.4 ± 1.7 ng eq/g
- Cerebrum ([3]; monkey, PO): 6.5 ± 3.8 ng eq/g
- Plasma ([3]; monkey, PO): 0.9 ± 0.2 ng eq/mL
- Cerebrum/Plasma ([3]; monkey, single oral dose of 1 mg/kg, 14 days after dosing): 7x
- 14C-Tesetaxel Radioactivity Concentration 14 Days after Dosing, Cerebrum (Mean ± SD) [3, 6]: 6.5 ± 3.8 ng eq./g or mL
- 14C-Tesetaxel Radioactivity Concentration 14 Days after Dosing, Plasma (Mean ± SD) [3, 6]: 0.9 ± 0.2 ng eq./g or mL
- CNS penetration ([3]; monkeys, oral (PO) or intravenous (IV) administration): CNS penetration was observed
- Activity against taxane-resistant tumors (taxane-resistant tumors): retain activity against taxane-resistant tumors
- Terminal plasma half-life (t1/2) [4]: ~190 h
